Test results published in BindingDB's records for doi:10.3109/14756366.2012.740477 (Solapur University, 2013).
pIC50: −log10 of the molar value.

Target: Urease (Canavalia ensiformis, UniProt P07374)
Test: Urease Inhibition Assay
Conditions: pH 6.8; 30 °C
Protocol: Mixture of 25 μL of urease enzyme (Jack bean) solution containing 1 unit of enzyme (1 unit = 0.02 mg of enzyme) was dissolved in phosphate buffer of pH 6.8, 55 μL of buffer containing 100 mM urea, and 5 μL of test compounds (0.5 mM concentration) was incubated at 30°C for 15 min in 96-well plates. Urease activity was determined by measuring ammonia production using the iodophenol method38. Briefly, 45 μL each of phenol reagent and 70 μL of alkali reagent were added to each well. The increase in absorbance at 630 nm was measured after 50 min, using a microplate reader (Molecular Device, CA, USA). All reactions were performed in triplicate in a final volume of 200 μL. The results (change in absorbance per min) were processed using Soft-Max Pro software (Molecular Device, CA, USA).

Urease, sequence (P07374 whole entry): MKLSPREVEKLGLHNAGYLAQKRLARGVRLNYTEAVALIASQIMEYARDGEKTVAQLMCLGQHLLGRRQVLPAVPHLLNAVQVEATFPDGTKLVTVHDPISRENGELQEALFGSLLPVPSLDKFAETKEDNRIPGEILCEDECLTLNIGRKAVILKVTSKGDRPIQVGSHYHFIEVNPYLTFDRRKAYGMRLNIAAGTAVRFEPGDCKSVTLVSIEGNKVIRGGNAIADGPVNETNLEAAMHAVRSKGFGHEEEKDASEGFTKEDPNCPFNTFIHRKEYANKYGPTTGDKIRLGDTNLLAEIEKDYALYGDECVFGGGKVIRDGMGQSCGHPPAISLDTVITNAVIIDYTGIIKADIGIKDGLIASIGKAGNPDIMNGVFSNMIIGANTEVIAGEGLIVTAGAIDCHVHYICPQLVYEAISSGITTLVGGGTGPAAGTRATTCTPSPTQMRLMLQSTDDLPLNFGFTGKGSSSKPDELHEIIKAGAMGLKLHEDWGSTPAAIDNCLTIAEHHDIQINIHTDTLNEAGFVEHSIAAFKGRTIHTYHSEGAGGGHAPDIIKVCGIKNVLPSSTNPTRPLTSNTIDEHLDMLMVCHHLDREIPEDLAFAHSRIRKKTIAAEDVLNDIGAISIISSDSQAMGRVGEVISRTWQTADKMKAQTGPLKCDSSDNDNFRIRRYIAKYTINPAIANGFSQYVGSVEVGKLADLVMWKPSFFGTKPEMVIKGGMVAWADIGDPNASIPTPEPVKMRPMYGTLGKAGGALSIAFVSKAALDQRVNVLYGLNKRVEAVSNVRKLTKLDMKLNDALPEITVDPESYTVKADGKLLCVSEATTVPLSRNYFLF

Row | SMILES | pIC50
1 | COc1ccc(-c2cc(-c3ccc4c(c3)c3ccccc3n4C)nc(N)n2)cc1OC [4-(3,4-Dimethoxyphenyl)-6-(9-methyl-9H-carbazol-3-yl)-pyrimidin-2-amine (5c)] | 4.51
2 | Cn1c2ccccc2c2cc(-c3cc(-c4ccc(F)cc4)nc(N)n3)ccc21 [4-(4-Fluorophenyl)-6-(9-methyl-9H-carbazol-3-yl)-pyrimidin-2-amine (5e)] | < 4.00
3 | Cn1c2ccccc2c2cc(-c3cc(-c4cc(Cl)ccc4Cl)nc(N)n3)ccc21 [4-(2,5-Dichlorophenyl)-6-(9-methyl-9H-carbazol-3-yl)-pyrimidin-2-amine (5k)] | 4.55
4 | COc1ccc(-c2cc(-c3ccc4c(c3)c3ccccc3n4C)nc(N)n2)cc1 [4-(4-Methoxyphenyl)-6-(9-methyl-9H-carbazol-3-yl)-pyrimidin-2-amine (5b)] | 4.02
5 | COc1cc(OC)c(-c2cc(-c3ccc4c(c3)c3ccccc3n4C)nc(N)n2)c(OC)c1 [4-(9-Methyl-9H-carbazol-3-yl)-6-(2,4,6-trimethoxyphenyl)-pyrimidin-2-amine (5d)] | 4.13
6 | Cn1c2ccccc2c2cc(-c3cc(-c4ccc(Cl)cc4Cl)nc(N)n3)ccc21 [4-(2,4-Dichlorophenyl)-6-(9-methyl-9H-carbazol-3-yl)-pyrimidin-2-amine (5i)] | 4.71
7 | Cn1c2ccccc2c2cc(-c3cc(-c4cccs4)nc(N)n3)ccc21 [4-(9-Methyl-9H-carbazol-3-yl)-6-(thiophen-2-yl)-pyrimidin-2-amine (5n)] | < 4.00
8 | Cn1c2ccccc2c2cc(-c3cc(-c4ccc(Cl)cc4)nc(N)n3)ccc21 [4-(4-Chlorophenyl)-6-(9-methyl-9H-carbazol-3-yl)-pyrimidin-2-amine (5h)] | < 4.00
9 | Cn1c2ccccc2c2cc(-c3cc(-c4cccc(N)c4)nc(N)n3)ccc21 [4-(3-Aminophenyl)-6-(9-methyl-9H-carbazol-3-yl)-pyrimidin-2-amine (5p)] | 4.08
10 | Cn1c2ccccc2c2cc(-c3cc(-c4ccccn4)nc(N)n3)ccc21 [4-(9-Methyl-9H-carbazol-3-yl)-6-(pyridin-2-yl)-pyrimidin-2-amine (5o)] | < 4.00
11 | Cn1c2ccccc2c2cc(-c3cc(-c4ccc(Cl)c(Cl)c4)nc(N)n3)ccc21 [4-(3,4-Dichlorophenyl)-6-(9-methyl-9H-carbazol-3-yl)-pyrimidin-2-amine (5j)] | 4.63
12 | Cn1c2ccccc2c2cc(-c3cc(-c4ccccc4)nc(N)n3)ccc21 [4-(9-Methyl-9H-carbazol-3-yl)-6-phenylpyrimidin-2-amine (5a)] | < 4.00
13 | Cn1c2ccccc2c2cc(-c3cc(-c4ccc([N+](=O)[O-])cc4)nc(N)n3)ccc21 [4-(9-Methyl-9H-carbazol-3-yl)-6-(4-nitrophenyl)-pyrimidin-2-amine (5m)] | 4.06
14 | Cn1c2ccccc2c2cc(-c3cc(-c4ccc(Br)cc4)nc(N)n3)ccc21 [4-(4-Bromophenyl)-6-(9-methyl-9H-carbazol-3-yl)-pyrimidin-2-amine (5l)] | 4.02
15 | Cn1c2ccccc2c2cc(-c3cc(-c4ccc(F)cc4F)nc(N)n3)ccc21 [4-(2,4-Difluorophenyl)-6-(9-methyl-9H-carbazol-3-yl)-pyrimidin-2-amine (5f)] | 4.40
16 | Cn1c2ccccc2c2cc(-c3cc(-c4ccc(F)c(F)c4)nc(N)n3)ccc21 [4-(3,4-Difluorophenyl)-6-(9-methyl-9H-carbazol-3-yl)-pyrimidin-2-amine (5g)] | 4.34
